PMC9594040, “Structure-Based Discovery of Negative Allosteric Modulators of the Metabotropic Glutamate Receptor 5” (ACS Chemical Biology, 2022)

Each molecule was assayed against human mGlu5 (Homo sapiens, UniProt P41594) (assay: Radioligand displacement assay (radiolabeled MPEP) on membranes of HEK293 cells stably expressing mGlu5). Settings: Ki, radioligand displacement; mean ± SEM of two experiments.
Sequence of human mGlu5 (P41594 21-1212): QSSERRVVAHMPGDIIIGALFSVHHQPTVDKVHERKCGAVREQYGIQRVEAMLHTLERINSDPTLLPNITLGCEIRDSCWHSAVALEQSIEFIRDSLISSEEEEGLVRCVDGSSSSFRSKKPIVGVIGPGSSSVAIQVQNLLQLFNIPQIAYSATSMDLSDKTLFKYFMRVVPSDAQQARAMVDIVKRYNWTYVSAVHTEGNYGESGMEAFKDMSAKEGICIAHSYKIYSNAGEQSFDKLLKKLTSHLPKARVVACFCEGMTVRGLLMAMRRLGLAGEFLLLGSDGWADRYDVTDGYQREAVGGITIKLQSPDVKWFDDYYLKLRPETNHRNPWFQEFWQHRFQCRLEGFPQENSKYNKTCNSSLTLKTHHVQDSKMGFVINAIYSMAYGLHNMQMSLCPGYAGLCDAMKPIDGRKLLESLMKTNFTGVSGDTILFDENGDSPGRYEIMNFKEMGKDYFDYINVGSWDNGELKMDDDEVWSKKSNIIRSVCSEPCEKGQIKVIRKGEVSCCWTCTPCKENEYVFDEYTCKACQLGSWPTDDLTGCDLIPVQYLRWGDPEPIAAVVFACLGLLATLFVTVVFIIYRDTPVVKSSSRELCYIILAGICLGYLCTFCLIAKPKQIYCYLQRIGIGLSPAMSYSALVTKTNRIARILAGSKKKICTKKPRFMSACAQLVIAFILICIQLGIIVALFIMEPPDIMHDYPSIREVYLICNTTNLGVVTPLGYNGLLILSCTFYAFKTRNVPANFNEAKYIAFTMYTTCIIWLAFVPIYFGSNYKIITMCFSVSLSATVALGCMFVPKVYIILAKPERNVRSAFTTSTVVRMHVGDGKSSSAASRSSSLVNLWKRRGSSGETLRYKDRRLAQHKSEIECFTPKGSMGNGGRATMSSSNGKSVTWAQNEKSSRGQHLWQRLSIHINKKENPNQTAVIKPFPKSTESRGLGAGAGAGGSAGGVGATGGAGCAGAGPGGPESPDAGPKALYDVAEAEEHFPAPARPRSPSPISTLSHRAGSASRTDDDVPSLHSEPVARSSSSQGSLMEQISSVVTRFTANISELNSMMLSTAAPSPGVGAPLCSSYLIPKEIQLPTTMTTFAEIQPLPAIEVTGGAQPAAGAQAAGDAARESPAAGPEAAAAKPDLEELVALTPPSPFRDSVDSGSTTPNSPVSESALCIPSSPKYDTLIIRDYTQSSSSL
Description: Treated cells were harvested with PBS/2 mM EDTA and washed three times with ice-cold PBS and frozen at −80 °C. The frozen cell pellet was resuspended in membrane buffer (25 mM Tris/7.4, 250 mM sucrose, 2.5 mM EDTA, 2 ug/ml aprotinin, 0.5 ug/ml leupeptin and 200 nM PMSF) and homogenized with a polytron 20–30 s at maximum power. After centrifugation at 18,000 RPM for 30 min at 4 °C, the pellet was resuspended in ice-cold membrane buffer, hand-homogenized, and centrifuged as described above. This pellet was further resuspended in ice-cold membrane buffer. The protein content was measured using the Bradford method with bovine serum albumin as the standard. The membrane homogenate was frozen at −80 °C before use. After thawing, the membranes were washed once and resuspended in ice-cold 50 mM Tris–HCl, 0.9% NaCl, pH 7.4 buffer. All incubations were performed at room temperature. For the displacement binding experiments, 15 μg of membranes were incubated with 5 nM the radioligand in the presence of 10 varying concentrations of the test compound for 2 h at room temperature with shaking. At the end of the respective incubations, the suspension was filtered onto PerkinElmer GF/C glass fiber filters (1450–421) pre-soaked in 0.5% polyethyleneimine and washed rapidly four times using a Tomtec Harvester 96 Mach III cell harvester (Tomtec, Hamden, CT) with 5 mL of cold wash buffer (50 mM Tris–HCl, pH 7.4). The radioactivity trapped on the filters was measured after heat sealing the filters with MeltiLexTM A (PerkinElmer, 1450–441) in a 1450 MicroBeta TriLux counter (PerkinElmer). […] IC50 values were derived from the inhibition curve, and Ki values were calculated according to the Cheng-Prusoff equation of Ki = IC50/(1 + [L]/Kd),[61] where [L] is the concentration of radioligand and Kd is its dissociation constant at the receptor, derived from the saturation isotherm.

| Structure (SMILES) | Ki [µM] |
| --- | --- |
| CN(Cc1cnn(-c2ccccc2)c1)c1noc(-c2ccccc2)n1 [L4] | 4 ± 0.5 |
| CN(Cc1cnn(-c2ccc(F)cc2)c1)c1nc(-c2ccccc2)no1 [L7] | 7.9 ± 0.6 |
| N#Cc1ccc(NCC#Cc2ccccc2)cc1 [F3] | 3.4 ± 0.2 |
| N#Cc1cccc(COc2ccccc2F)c1 [F4] | 8.6 ± 0.1 |
| Cc1nc(-c2ccccc2)sc1C(C)N(C)C(=O)c1cnns1 (centres unmarked) [L6] | 7.3 ± 1.3 |
| COc1ccc(Cn2cccc2-c2nc(-c3ccncc3)no2)cc1 [L3] | 3.6 ± 0.1 |
| CC(c1nc(-c2ccco2)no1)n1nnc(-c2cccc(F)c2)n1 (centres unmarked) [L5] | 4.3 ± 0.9 |

Same assay, conditions: Table S1; radioligand displacement at 30 µM; mean ± SEM of two experiments

| Structure (SMILES) | Inhibition at 30 µM [%] |
| --- | --- |
| O=C(NCc1cc(-c2ccco2)on1)c1cccc(Cl)c1 [L18] | 34 ± 1 |
| CC(C)c1nccn1Cc1nc2ccccc2[nH]1 [F16] | 33 ± 5 |
| O=C(NCc1ccnc(-n2cccn2)c1)c1ccc(Br)o1 [L29] | 30 ± 9 |
| O=C(CCc1ccncc1)N1CC(n2cc(-c3ccccc3)nn2)C1 [L32] | 29 ± 3 |
| N#Cc1ccnc(Nc2ccc3c(c2)OCO3)c1 [F30] | 27 ± 3 |
| Cc1ccc(F)c(NC(=O)C2CC(=O)N(CCc3ccccc3)C2)c1 (centres unmarked) [L42] | 26 ± 5 |
| O=C(COc1ccccc1)Nc1cccc(NC(=O)c2ccncc2)c1 [L45] | 25 ± 7 |
| O=C(CSc1ccccc1)N1CC(OCc2cccc(F)c2)C1 [L55] | 18 ± 3 |
| Cc1ccoc1-c1nc(Cc2ccccc2)n[nH]1 [F23] | 30 ± 7 |
| Cc1ccc(CNC(=O)c2ccn(COc3ccc(F)cc3)n2)o1 [L54] | 18 ± 3 |
| CC1CC1C(=O)N(C)CCOc1ccccc1 (centres unmarked) [F15] | 33 ± 9 |
| O=C(CCc1cccnc1)N1CCCC(COc2cccc(F)c2)C1 (centres unmarked) [L24] | 32 ± 3 |
| O=C(CSc1n[nH]c(-c2cccnc2)n1)Nc1cccc(Cl)c1 [L21] | 33 ± 12 |
| c1ccc(OCc2noc(NCc3nc4ccccc4s3)n2)cc1 [L43] | 26 ± 12 |
| O=C(CSc1ccc(-n2cccn2)nn1)Nc1ccccc1Cl [L39] | 27 ± 11 |
| CC(c1nc(-c2ccccc2)no1)n1ccnc1 (centres unmarked) [F21] | 31 ± 1 |
| CSc1ccc(C(=O)N(C)Cc2nc3ccccc3[nH]2)o1 [L17] | 35 ± 3 |
| OCc1cccc(NCc2cccc(Cl)c2)c1 [F26] | 28 ± 15 |
| O=C(NCc1ccnc(OCc2ccccc2)c1)c1cccc(F)c1 [L46] | 24 ± 3 |
| Cc1cc(Cn2ccc(-c3ccccc3)n2)on1 [F53] | 19 ± 2 |
| O=C(NCc1ccc(N2CCCC2)nc1)c1cnn(-c2ccccc2)c1 [L11] | 40 ± 4 |
| CCCn1cc(C(=O)Nc2cccc(NC(=O)c3ccncc3)c2)cn1 [L34] | 29 ± 1 |
| CCCOc1ccc(N2CC(C(=O)Nc3ccccn3)CC2=O)cc1 (centres unmarked) [L47] | 24 ± 3 |
| Cc1csc(CNC(=O)N2CCC(COCc3ccccc3)C2)n1 (centres unmarked) [L48] | 23 ± 4 |

| Structure (SMILES) | Inhibition at 30 µM [%] |
| --- | --- |
| CCc1noc(COc2cccc(NC(=O)c3ccccc3)c2)n1 [L37] | 29 ± 4 |
| Oc1ccccc1-c1n[nH]c(-c2ccncc2)n1 [F28] | 27 ± 3 |
| CN(CCc1ccccn1)c1ccc(Cl)nn1 [F48] | 21 ± 1 |
| c1ccc(-c2nsc(-n3ccnc3)n2)cc1 [F43] | 23 ± 2 |
| CCOc1cccc(CNC(=O)C2CC=CC2)c1 [F7] | 39 ± 7 |
| OC(c1ccccc1)c1nc2cc(F)ccc2[nH]1 (centres unmarked) [F35] | 25 ± 12 |
| Cc1ccccc1NC(=O)c1ccnc(Cl)c1 [F33] | 26 ± 11 |
| CCOc1ccc(C(=O)N2CC(OCc3ccc(F)cc3)C2)cc1 [L58] | 16 ± 2 |
| CC1CN(C(=O)Nc2cccc(C#N)c2)CC(c2ccccc2)O1 (centres unmarked) [L14] | 38 ± 12 |
| CN(Cc1cc(-c2ccccc2)no1)C(=O)CCOc1ccccc1 [L40] | 27 ± 3 |
| Cc1cccc(-c2c[nH]c(C3CCCN3C(=O)c3ccccn3)n2)c1 (centres unmarked) [L44] | 26 ± 13 |
| CC[C@H](Nc1cnn(CC)c1)c1ccc(C)cc1 [F40] | 24 ± 7 |
| O=C(NCc1ccncc1)c1cccc(Cl)c1 [F36] | 25 ± 3 |
| COCc1cccc(Nc2cc(Cl)ncn2)c1 [F12] | 35 ± 10 |
| CC(O)c1cccc(OCc2ccccc2)c1 (centres unmarked) [F27] | 27 ± 3 |
| C=CCN1CC(c2nc3ccccc3[nH]2)CC1=O (centres unmarked) [F49] | 20 ± 1 |
| CC(=O)c1nc(Nc2ccccc2)sc1C [F50] | 20 ± 9 |
| CC(O)c1ccc(OCc2ccc(F)cc2)cc1 (centres unmarked) [F47] | 21 ± 3 |
| N#Cc1cc(CNc2ccn(-c3ncccc3Cl)n2)ccc1F [L10] | 41 ± 7 |
| CCC(NC(=O)c1ccccn1)c1ccccc1 (centres unmarked) [F52] | 19 ± 5 |
| Nc1ccccc1-c1nc2cc(F)c(F)cc2[nH]1 [F59] | 9 ± 1 |
| O=C(COc1ccccc1)NCc1cc(-c2ccc(F)cc2)on1 [L50] | 20 ± 1 |
| O=C(NCc1ccc(-n2cccn2)cc1)c1cc2ccccc2s1 [L12] | 39 ± 6 |
| CCn1cnnc1CNC(=O)c1cccc(C)c1 [F24] | 30 ± 1 |

| Structure (SMILES) | Inhibition at 30 µM [%] |
| --- | --- |
| Cc1ccc(C(C)NC(=O)c2ccc(F)cc2)o1 (centres unmarked) [F10] | 35 ± 8 |
| N#Cc1ccc(OC/C=C/c2ccccc2)nc1 [F11] | 35 ± 6 |
| Cc1cc(CN(C)C(=O)Nc2ccccc2)on1 [F14] | 33 ± 4 |
| Cn1ccnc1SCC=Cc1ccccc1 [F20] | 31 ± 1 |
| COCc1ccc(CNc2ncccc2F)cc1 [F57] | 17 ± 3 |
| O=C(NCc1ccccc1)c1csc(COc2ccc(F)cc2)n1 [L19] | 34 ± 3 |
| Clc1ncnc2cc(-c3ccccc3)[nH]c12 [F41] | 24 ± 2 |
| O=C(Nc1ccc(F)c(F)c1)C1(c2cc(-c3ccco3)on2)CC1 [L56] | 18 ± 6 |
| CN(Cc1cnn(-c2ccccc2)c1)C(=O)c1cc(-c2ccco2)on1 [L20] | 34 ± 5 |
| CCN(CC(O)c1ccccc1)c1ccccc1 (centres unmarked) [F29] | 27 ± 1 |
| O=C(NCc1cccnc1)c1ccc(COc2ccccc2)o1 [L27] | 31 ± 7 |
| Cc1cccn2cc(Cn3ccccc3=O)nc12 [F58] | 16 ± 5 |
| Cc1ccc(Cn2ccnc2C(=O)Nc2ccccc2)cc1 [L30] | 30 ± 5 |
| Cc1noc(CCC(=O)N2CCC(CSc3ccccc3)C2)n1 (centres unmarked) [L15] | 37 ± 6 |
| O=C(Nc1ccccc1F)OCc1cccnc1 [F34] | 26 ± 4 |
| c1ccc(-n2cc(CCn3cnnc3)cn2)cc1 [F17] | 33 ± 3 |
| O=C(COc1ccc2ccccc2c1)N1CC(c2nc(C3CC3)no2)C1 [L57] | 17 ± 2 |
| CCN(Cc1nc(-c2ccncc2)no1)c1ccccc1 [L52] | 20 ± 1 |
| Cc1cccc(NC(=O)Cc2ccc(O)cc2)c1 [F5] | 42 ± 5 |
| Nc1ccccc1Sc1nc2ccccc2[nH]1 [F51] | 20 ± 14 |
| O=C(Nc1cccc(OCc2ccccn2)c1)c1cccc(F)c1 [L16] | 36 ± 1 |
| CC[C@@H]1CCCC(C(=O)Nc2ccccc2)=C1O [F46] | 22 ± 1 |
| Cc1ccc(Cn2cccc2-c2nc(-c3ccncc3)no2)cc1 [L31] | 29 ± 4 |
| O=C(Nc1ccccn1)c1cc2occc2n1Cc1ccccc1 [L38] | 27 ± 1 |

| Structure (SMILES) | Inhibition at 30 µM [%] |
| --- | --- |
| C#Cc1cccc(NC(C)c2ccccc2)c1 (centres unmarked) [F44] | 23 ± 4 |
| CC(=O)c1cccc(NCc2ccccc2)c1 [F9] | 38 ± 1 |
| Cc1cccc(C(=O)NC(C)c2ccncc2)n1 (centres unmarked) [F39] | 24 ± 9 |
| COc1ccc(CNC(=O)c2ccncc2)cc1 [F42] | 24 ± 8 |
| O=C(CNC(=O)c1ccco1)Nc1ccccc1 [F37] | 25 ± 4 |
| CC(NC(=O)COc1ccc(Cl)cc1)C(=O)Nc1ccccc1 (centres unmarked) [L41] | 26 ± 2 |
| COCc1cccc(Nc2ccnc(C#N)c2)c1 [F19] | 32 ± 4 |
| CN(C)C(=O)c1cc(OCc2ccccc2)no1 [F32] | 27 ± 1 |
| CC(C)C(=O)N(C)Cc1nc2ccccc2[nH]1 [F45] | 22 ± 9 |
| Clc1cccc(OCCCn2ccnc2)c1 [F56] | 18 ± 4 |
| Cc1ccccc1CNc1ccc(F)c(C#N)c1 [F18] | 33 ± 9 |
| COc1ccc(CNC(=O)c2csnn2)cc1 [F25] | 28 ± 9 |
| Cc1ccc(OCC(=O)N2CC(c3nc(-c4ccco4)no3)C2)cc1 [L59] | 15 ± 1 |
| C=CCNC(=O)c1ccc(Oc2ccccc2)o1 [F13] | 35 ± 10 |
| Cc1ccc(C2CC2c2nc(CNC(=O)c3ccccc3)no2)s1 (centres unmarked) [L26] | 31 ± 7 |
| O=C(Nc1cccc(F)c1)C1CCN(c2ccc(F)cc2)C1=O (centres unmarked) [L23] | 32 ± 1 |
| CN(Cc1cn2ccccc2n1)c1ccccc1 [F22] | 31 ± 1 |
| O=C(c1ccc(Cl)s1)N1CC(c2nc(-c3ccncc3)no2)C1 [L49] | 22 ± 1 |
| c1ccc(Cn2nnc(-c3ccncc3)n2)cc1 [F38] | 25 ± 3 |
| c1ccc(Cc2n[nH]c(-c3ccncc3)n2)cc1 [L36] | 29 ± 8 |
| CC(NC(=O)c1cccc(F)c1)c1ccc(-n2cncn2)cc1 (centres unmarked) [L53] | 19 ± 2 |
| Fc1ccc(F)c(NCCCn2ccnc2)c1 [F55] | 19 ± 5 |
| Cc1ccc(C(=O)Nc2cccc(NC(=O)c3ccncc3)c2)s1 [L51] | 20 ± 6 |

Same assay, conditions: Table S1; radioligand displacement; mean ± SEM of two experiments

| Structure (SMILES) | Ki [µM] |
| --- | --- |
| CC(CCOc1ccccc1)c1nc(-c2ccc(C#N)cn2)no1 (centres unmarked) [L8] | 11 ± 1 |

Same assay, conditions: radioligand displacement; mean ± SEM of two experiments

| Structure (SMILES) | Ki [µM] |
| --- | --- |
| O=C(Nc1cccc(Cn2ccnc2)c1)c1cccc(F)c1 [L9] | 16 |
